Results reported in patent publication US8722849B2, “Polypeptides” (Novo Nordisk A/S, priority 2011, dated 2014).
In brackets after ≈: the same amount, converted by molar mass. Read-outs that look alike come from different tables or passages of the source. Starred links: 1 amine or outer side, 2 acyl side, 3 side chain; linkers in the order of their positions; H or OH if unused. Positions of bridges follow the written chain, without caps; N, C: chain ends. Residues, ends and D or L forms follow the SMILES beside them. *: point of attachment. C20 diacid = O=C(O)CCCCCCCCCCCCCCCCCCC(=O)*; γGlu = O=C(O)[C@H](CCC(=O)[*:2])N[*:1]

Columns and labels:
[1] = target: T1, human amylin receptor (amylin 3(a) receptor: human calcitonin receptor + RAMP-3) (Homo sapiens, UniProt O60896+P30988); assay: Assay (II)a functional CRE-luciferase assay, human amylin receptor; type: cell-based; conditions: Table 2; BHK amylin 3(a)-receptor/CRE-luc cells
T1 construct: expressed in transfected cells; host or cells: BHK570
T1 sequence (P30988 25-474): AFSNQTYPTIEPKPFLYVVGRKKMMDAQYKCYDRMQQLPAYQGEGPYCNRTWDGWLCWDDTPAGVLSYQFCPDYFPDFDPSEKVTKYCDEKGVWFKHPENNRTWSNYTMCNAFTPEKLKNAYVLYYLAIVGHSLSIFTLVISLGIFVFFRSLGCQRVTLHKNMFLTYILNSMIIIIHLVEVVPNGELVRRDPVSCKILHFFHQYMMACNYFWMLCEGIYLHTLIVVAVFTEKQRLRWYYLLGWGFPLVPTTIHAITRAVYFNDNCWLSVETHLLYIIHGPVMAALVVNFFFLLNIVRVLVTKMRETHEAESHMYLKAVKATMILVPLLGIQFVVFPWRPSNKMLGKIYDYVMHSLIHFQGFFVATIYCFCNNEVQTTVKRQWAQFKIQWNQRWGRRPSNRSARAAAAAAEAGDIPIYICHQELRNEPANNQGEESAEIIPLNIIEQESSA
T1 sequence (O60896 24-148 partner): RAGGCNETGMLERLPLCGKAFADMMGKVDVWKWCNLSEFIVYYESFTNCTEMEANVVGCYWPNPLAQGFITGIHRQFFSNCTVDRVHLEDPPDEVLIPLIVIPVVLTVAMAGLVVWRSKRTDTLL

[2] = Assay (IV) determination of solubility; type: physicochemical
Method in brief: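 Solubility was profiled across pH 3.0–8.0 after 18 hours at room temperature: a ~500 nmol/ml aqueous polypeptide solution was diluted 1:1 into 100 mM glycylglycine or bistrispropane buffers. After centrifugation, HPLC gave the dissolved concentration.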

[3] = target: T2, human calcitonin receptor (Homo sapiens, UniProt P30988); assay: Assay (II)a functional CRE-luciferase assay, human calcitonin receptor; type: cell-based; conditions: Table 7; human calcitonin (CTa) receptor
T2 construct: expressed in transfected cells; host or cells: BHK570
T2 sequence (P30988 25-474): T1 sequence (P30988 25-474)

[4] = Assay (III) ThT fibrillation assay for physical stability; type: physicochemical; conditions: ThT fibrillation assay
Method in brief: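 Freshly prepared formulations, pH-adjusted, with 1 μM ThT; four or eight replicates incubated at 37 °C under 960 rpm orbital shaking. Fluorescence (ex 444/em 485 nm) read every 20 min; […]. Peptide concentration measured by RP-HPLC before and after the run.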

[5] = bistrispropane buffer, pH 6, pH 6.0, read-out: Solubility pH 6.0
[6] = bistrispropane buffer, pH 6.5, pH 6.5, read-out: Solubility pH 6.5
[7] = bistrispropane buffer, pH 7, pH 7.0, 18 hours at room temperature, Table 3, read-out: Solubility pH 7.0
[8] = bistrispropane buffer, pH 7, pH 7.0, read-out: Solubility pH 7.0
[9] = bistrispropane buffer, pH 7.5, pH 7.5, read-out: Solubility pH 7.5
[10] = bistrispropane buffer, pH 8, pH 8.0, read-out: Solubility pH 8.0
[11] = glycylglycine buffer, pH 3, pH 3.0, read-out: Solubility pH 3.0
[12] = glycylglycine buffer, pH 4, pH 4.0, 18 hours at room temperature, Table 2, read-out: Solubility pH 4.0
[13] = glycylglycine buffer, pH 4, pH 4.0, read-out: Solubility pH 4.0
[14] = glycylglycine buffer, pH 5, pH 5.0, read-out: Solubility pH 5.0

Row | SMILES | EC50 [1] [nM] | solubility at 18 h [2, 5] [µM] | solubility at 18 h [2, 6] [µM] | solubility at 18 h [2, 7] [µM] | solubility at 18 h [2, 8] [µM] | solubility at 18 h [2, 9] [µM] | solubility at 18 h [2, 10] [µM] | solubility at 18 h [2, 11] [µM] | solubility at 18 h [2, 12] [µM] | solubility at 18 h [2, 13] [µM] | solubility at 18 h [2, 14] [µM] | EC50 [3] [nM] | ThT pH 4.0 lag time (h) [4] [h]
1 | CC[C@H](C)[C@H](NC(=O)[C@@H]1CCCN1C(=O)CNC(=O)[C@H](Cc1ccccc1)NC(=O)[C@H](CC(N)=O)NC(=O)[C@H](CCC(N)=O)NC(=O)[C@H](CO)NC(=O)[C@H](CO)NC(=O)[C@H](Cc1c[nH]cn1)NC(=O)[C@@H](NC(=O)[C@H](CC(C)C)NC(=O)[C@H](Cc1ccccc1)NC(=O)[C@H](CCC(=O)O)NC(=O)[C@H](C)NC(=O)[C@H](CC(C)C)NC(=O)[C@H](CCCNC(=N)N)NC(=O)[C@H](CCC(N)=O)NC(=O)[C@@H](NC(=O)[C@H](C)NC(=O)[C@@H]1CSSC[C@H](NC(=O)[C@H](CCCCN)NC(=O)CC[C@H](NC(=O)CCCCCCCCCCCCCCCCCCC(=O)O)C(=O)O)C(=O)N[C@@H](CC(N)=O)C(=O)N[C@@H]([C@@H](C)O)C(=O)N[C@@H](C)C(=O)N[C@@H]([C@@H](C)O)C(=O)N1)[C@@H](C)O)C(C)C)C(=O)N[C@@H](CC(C)C)C(=O)N1CCC[C@H]1C(=O)N1CCC[C@H]1C(=O)N[C@H](C(=O)N[C@@H](CC(N)=O)C(=O)N[C@H](C(=O)NCC(=O)N[C@@H](CO)C(=O)N[C@@H](CCC(N)=O)C(=O)N[C@H](C(=O)N1CCC[C@H]1C(N)=O)[C@@H](C)O)C(C)C)[C@@H](C)O [Example 139, N-alpha-[(S)-4-Carboxy-4-(19-carboxynonadecanoylamino)butyryl]-[Glu14,Gln21,Gln35,Pro37]-pramlintide] ({C20 diacid-γGlu}-KCNTATCATQRLAEFLVHSSQNFGPILPPTNVGSQTP-NH2; disulfide 2-7 (inferred)) | 0.107 | > 200 | > 200 | > 200 | > 200 | > 200 | > 200 | > 200 | > 200 | > 200 | > 200 | 0.0585 | 23.6
2 | CC[C@H](C)[C@H](NC(=O)[C@@H]1CCCN1C(=O)CNC(=O)[C@H](Cc1ccccc1)NC(=O)[C@H](CC(N)=O)NC(=O)[C@H](CC(N)=O)NC(=O)[C@H](CO)NC(=O)[C@H](CO)NC(=O)[C@H](CCCNC(=N)N)NC(=O)[C@@H](NC(=O)[C@H](CC(C)C)NC(=O)[C@H](Cc1ccccc1)NC(=O)[C@H](CCC(=O)O)NC(=O)[C@H](C)NC(=O)[C@H](CC(C)C)NC(=O)[C@H](CCCNC(=N)N)NC(=O)[C@H](CCC(N)=O)NC(=O)[C@@H](NC(=O)[C@H](C)NC(=O)[C@@H]1CSSC[C@H](NC(=O)[C@H](Cc2c[nH]cn2)NC(=O)CC[C@H](NC(=O)CCCCCCCCCCCCCCCCCCC(=O)O)C(=O)O)C(=O)N[C@@H](CC(N)=O)C(=O)N[C@@H]([C@@H](C)O)C(=O)N[C@@H](C)C(=O)N[C@@H]([C@@H](C)O)C(=O)N1)[C@@H](C)O)C(C)C)C(=O)N[C@@H](CC(C)C)C(=O)N1CCC[C@H]1C(=O)N1CCC[C@H]1C(=O)N[C@H](C(=O)N[C@@H](CC(N)=O)C(=O)N[C@H](C(=O)NCC(=O)N[C@@H](CO)C(=O)N[C@@H](CC(N)=O)C(=O)N[C@H](C(=O)N1CCC[C@H]1C(N)=O)[C@@H](C)O)C(C)C)[C@@H](C)O [Example 143, N-alpha-[(S)-4-Carboxy-4-(19-carboxynonadecanoylamino)butyryl]-[His1,Glu14,Arg18,Pro37]-pramlintide] ({C20 diacid-γGlu}-HCNTATCATQRLAEFLVRSSNNFGPILPPTNVGSNTP-NH2; disulfide 2-7 (inferred)) | 0.0415 | 75 (≈ 329 µg/mL) | 122 (≈ 534 µg/mL) | 165 (≈ 723 µg/mL) | 165 (≈ 723 µg/mL) | > 200 | > 200 | > 200 | > 200 | > 200 | > 200 | 0.022 | 6
